How the values were obtained:
[1] = test system: endogenous CHIP; assay: Co-immunoprecipitation of endogenous CHIP with GFP-tau proteoforms; type: cell-based; conditions: Fig 3E
Protocol: Fig. 3 TauC3 Ser416 phosphorylation regulates CHIP-dependent tau homeostasis. A In vitro ubiquitination of tau proteoforms by CHIP. Samples were collected at the denoted timepoints, quenched in SDS-PAGE loading buffer, and analyzed by western blot. B Quantification of unmodified tau remaining following in vitro ubiquitination of varying tau proteoforms by CHIP. Unmodified tau remaining was analyzed by densitometry, normalized to 0-min time point, and curves were fit using one-phase exponential decay (n = 3 technical replicates). C Cartoon schematic depicting promoter architecture and varying C-terminal sequences for HEK293 FlpIn T-Rex cells expressing doxycycline inducible GFP-tau proteoforms. D Representative fluorescence micrographs for GFP-tau cells. Images show tau species associated with microtubules (green, false color), while nuclei are stained with Hoechst 33342 (blue, false color). Scale bar = 30 µm. Images are representative of three separate acquisitions. E Co-immunoprecipitation assay following IP of varying tau species from cells. Whole cell lysate (input) was used for loading controls, and co-immunoprecipitated CHIP was analyzed by western blot. Experiment was repeated in duplicate. F Representative western blot showing differing abundance of various tau proteoforms in HEK293 FlpIn T-Rex cells. Experiment was repeated in duplicate. G Quantification of tau protein abundance taken from three independent biological experiments. Tau:tubulin ratio was determined by densitometry and normalized to full-length tau. Error bars represent SD. Statistical significance was determined by one-way ANOVA with Tukey’s post hoc analysis. H Quantification of MAPT mRNA from three independent biological experiments. MAPT mRNA was normalized to GAPDH and shown relative to full-length tau. Error bars represent SD. Statistical significance was determined by one-way ANOVA with Tukey’s post hoc analysis.
Cells were washed once in 1X Dulbecco’s Phosphate Buffered Saline (D-PBS) and lysed in ice cold Pierce Immunoprecipitation (IP) lysis buffer (25 mM Tris-HCl pH 7.4, 150 mM NaCl, 1 mM EDTA, 1% NP-40). Lysates were collected by scraping, transferred to 1.5 mL microcentrifuge tubes, and incubated on ice for 15 min. […] Relative protein concentrations were determined by bicinchoninic acid assay (Pierce), and samples were normalized to the lowest protein concentration. […]
For tau immunoprecipitations, an aliquot (30 µL) of Protein A/G PLUS-agarose (Santa Cruz Biotech) per condition was collected and washed twice in ice cold IP lysis buffer. […] Inputs and eluates were subsequently analyzed by SDS-PAGE followed by western blotting. Quantification was performed by densitometry analysis in ImageJ (NIH).

[2] = test system: CHIP; assay: NanoBiT live cell PPI assay (CHIP-tau split luciferase); type: cell-based; conditions: Fig 1B, normalized to FL tau with vehicle, 30nM OA
Protocol: Fig. 1 Phosphorylation of tauC3 inhibits interaction with CHIP. A Cartoon schematic of the live-cell NanoBiT assay for measuring CHIP-tau PPIs (NanoBiT PDB = 7SNX; CHIP PDB = 2C2L). B Results of NanoBiT assays for CHIP interactions with tau proteoforms following treatment with okadaic acid (30 nM, 18 h) or DMSO control. Luminescence normalized to CHIP binding to FL 0N4R tau treated with vehicle (dashed line). Error bars represent standard deviation (SD). Statistical significance was determined by two-way ANOVA with Bonferroni’s post hoc analysis (n = 3 biological replicates). CTRL = mock transfected control. C Tau proteoforms binding to immobilized CHIP measured by ELISA. Assay was performed in technical triplicate and normalized to maximum absorbance at 450 nm. D Dissociation constants derived from (C). Error bars represent SD. E In vitro ubiquitination of tau proteoforms by CHIP. Samples were collected at the denoted timepoints, quenched in SDS-PAGE loading buffer, and analyzed by western blot. Assay was performed once.
Fig. 2 Phosphorylation of tauC3 Ser416 is sufficient to inhibit interaction with CHIP. A Cartoon depicting constructs used for mapping of inhibitory phosphorylation sites by NanoBiT live cell assays. B NanoBiT live cell assay for CHIP interactions with truncated tau constructs following treatment with okadaic acid (30 nM, 18 h) or DMSO control. Data are shown as the difference between okadaic acid treated samples and vehicle control. Error bars represent SD. Statistical significance was determined by two-sided, one-way ANOVA with Tukey’s post hoc analysis (n = 3 biological replicates). C Apparent change in melting temperatures (Tmapp) for CHIP incubated with DMSO control or Hsp70 C-terminal peptides, as determined by DSF. Error bars represent SD. (n = 4 technical replicates). D DSF experiments performed and analyzed as in the previous panel, but with tauC3-derived peptides. (n = 4 technical replicates). E Competition FP experiment showing displacement of fluorescent tracer from the CHIP TPR domain by various 10-mer Hsp70 or tauC3-derived peptides. Experiments were performed in technical quadruplicate. F Inhibition constants derived from (E). Error bars represent SD. G Tau proteoforms binding to immobilized CHIP, as measured by ELISA. Assay was performed in technical triplicate and normalized to maximum absorbance at 450 nm. H Dissociation constants derived from (G). Error bars represent SD.
CHIP-substrate NanoBiT PPI assay was performed as previously described. Briefly, HEK293T cells were seeded in poly-D-lysine coated 96-well plates (Corning, flat bottom, white opaque) in Opti-MEM. Cells were transfected with 50 ng each SmBiT/LgBiT DNA using Lipofectamine 3000 (Thermo Fisher) in Opti-MEM according to the manufacturer’s instructions. Transfections were performed for 24 h, after which the media was replaced with fresh Opti-MEM containing DMSO or 30 nM okadaic acid. Cells were incubated for an additional […] at 37 °C/5% CO2 in a humidified incubator. Following this incubation, 12.5 uL 1X Nano-Glo live cell luciferase reagent (Promega) diluted in LCS buffer (Promega) was added to each well, and samples were incubated for 10 min at room temperature in the dark to allow luminescence levels to stabilize. […] Un-transfected cells were used to obtain background measurements which were subtracted from observed luminescence values.

In the case of “tau: full length (FL) 0N4R splice isoform of tau, unmodified; recombinant or expressed in cells”, the CHIP/tau ([1]; IntDen quantification, with induction) is reported as 1.597, the “Relative Binding” value ([1]; IntDen quantification, with induction, relative to tauC3) is reported as 1.645 and the “CHIP/Tau normalized to tauC3” value ([1]; second quantification) is reported as 0.04136. The CHIP/Tau ([1]; second quantification, CHIP over total tau (D-8)) was 0.03219, the “fold change of luminescence” value ([2]; replicate 1) was 1.804 and the “fold change of luminescence” value ([2]; replicate 2) was 1.978. The “fold change of luminescence” value ([2]; replicate 3) was 1.758.
